Measurements reported in patent publication US10660928B2, “Pharmaceutical composition containing combination extracts of Moutan Root Bark, Angelica Dahurica Root, bupleurum root or fractions thereof for prevention and treatment of neurodegenerative disorder” (UNIVERSITY-INDUSTRY COOPERATION GROUP OF KYUNG HEE …, priority 2014, dated 2020).

Tests used:
[1] = tested on: SH-SY5Y, the human neuroblastoma cell line; experiment: Cell survival rate (calcein) in normal cells, cytotoxicity; type: cell-based; conditions: human, 4 h, 0.5 μg/ml
Procedure: Particularly, SH-SY5Y, the human neuroblastoma cell line, was inoculated in DMEM/F12 (Dulbeco's Modified Eagle's Medium & Ham's F12; Gibco, USA) supplemented with 10% FBS, followed by culture in a 37° C., 5% CO2/95% air (O2) incubator. Then, the cultured cells were transferred into a serum free medium at the density of 2.5×10^4 cells/well. […] The cells were collected and the cell survival rate was measured by using calcein. The survival rate of the cells that were increased or decreased compared with that of the normal control cells not-treated with the extract or its active component above and instead treated with DMSO was calculated and presented as percentage (%). Particularly, SH-SY5Y cells were cultured by the same manner as described in Experimental Example <1-1>. The cultured cells were transferred in a serum free medium at the density of 2.5×10^4 cells/well. […] The cells were collected and the cell survival rate was measured by using calcein. The cell survival rate that was increased or decreased compared with that of the normal control group not-treated with the extract or its active component above and instead treated with DMSO was calculated and presented as percentage (%).

SH-SY5Y cells [2] = experiment: MTT assay, endoplasmic reticulum stress induced by thapsigargin or tunicamycin; type: cell-based, human; conditions: treatment 0.5 μg/ml
Procedure: Particularly, SH-SY5Y cells were cultured by the same manner as described in Experimental Example <1-2>. The cells were treated with 1.0 ug/ml of the Angelica Dahurica Root extract prepared in Example <1-2> or 0.5 μg/ml or 1.0 μg/ml of Imperatorin, the active component thereof, followed by culture for 4 hours. The cells were treated with 0.5 μg/ml of thapsigargin (Thap) or 1 μg/ml of tunicamycin (Tuni), followed by culture for 24 hours to induce endoplasmic reticulum stress. Then, MTT assay was performed by the same manner as described in Experimental Example <1-2>. Compared with the normal control cells not treated with the extract or the active component thereof but treated with DMSO, the damage of mitochondria complex 1 in the cells, either increased or decreased, was investigated. The negative control was treated with 0.5 μg/ml of thapsigargin or 1 μg/ml of tunicamycin to cause endoplasmic reticulum stress but not treated with the extract or the active component thereof, followed by MTT assay by the same manner as described above.

SH-SY5Y cells [3] = experiment: ATP assay, endoplasmic reticulum stress induced by thapsigargin or tunicamycin; type: cell-based, human; conditions: treatment 0.5 μg/ml
Procedure: Particularly, SH-SY5Y cells were cultured by the same manner as described in Experimental Example <2-2>, and endoplasmic reticulum stress was induced. Then, the intracellular ATP level was measured by the same manner as described in Experimental Example <1-3>. The normal control was not treated with the extract of the invention or the active component thereof but treated with DMSO alone. All the results were presented as % by the normal control to present the intracellular ATP level. The negative control was not treated with the extract or the active component but treated with 0.5 μg/ml of thapsigargin or 1.0 μg/ml of tunicamycin alone to induce endoplasmic reticulum stress. Then, the Intracellular ATP level was measured by the same manner as described above.

GRP78 = experiment: RT-PCR of endoplasmic reticulum stress marker GRP78, thapsigargin; type: cell-based, human; conditions: treatment 0.5 μg/ml, thapsigargin 0.5 μg/ml; negative control 100.00
Procedure: (§1) Particularly, SH-SY5Y cells were cultured by the same manner as described in Experimental Example <2-2>, and endoplasmic reticulum stress was induced. Then, RT-PCR was performed with the cells having endoplasmic reticulum stress by the same manner as described in Experimental Example <1-4>, followed by electrophoresis to investigate the expression levels of GRP78 and XBP1p genes on 1.5% agarose gel under UV. The normal control was not treated with the extract of the invention or the active component thereof but treated with DMSO alone. The negative control was not treated with the extract or the active component but treated with 0.5 μg/ml of thapsigargin alone to induce endoplasmic reticulum stress. Then, the expression of the endoplasmic reticulum stress marker gene was confirmed by the same manner as described above.
(§2) Particularly, SH-SY5Y cells were cultured by the same manner as described in Experimental Example <2-2>, and endoplasmic reticulum stress was induced. Then, RT-PCR was performed with the cells having endoplasmic reticulum stress by the same manner as described in Experimental Example <1-4>, followed by electrophoresis to investigate the expression levels of GRP78 and XBP1p genes on 1.5% agarose gel under UV. The normal control was not treated with the extract of the invention but treated with DMSO alone. […]

XBP1p = experiment: RT-PCR of endoplasmic reticulum stress marker XBP1p, thapsigargin; type: cell-based, human; conditions: treatment 0.5 μg/ml, thapsigargin 0.5 μg/ml; negative control 100.00
Procedure: as §1, §2

## CC(C)=CCOc1c2occc2cc2ccc(=O)oc12 [Imperatorin, 9-[(3-Methyl-2-buten-1-yl)oxy]-7h-furo[3,2-g][1]benzopyran-7-one]
[1]
  Cell survival rate (% of control): 101.16 ± 0.59 % of control
SH-SY5Y cells [2]; inducer thapsigargin 0.5 μg/ml
  MTT (% of control): 86.23 ± 5.31 % of control
SH-SY5Y cells [2]; inducer tunicamycin 1.0 μg/ml
  MTT (% of control): 84.93 ± 3.68 % of control
SH-SY5Y cells [3]; inducer thapsigargin 0.5 μg/ml
  Intracellular ATP content (% of control): 104.85 ± 5.13 % of control
SH-SY5Y cells [3]; inducer tunicamycin 1.0 μg/ml
  Intracellular ATP content (% of control): 86.00 ± 1.18 % of control
GRP78
  GRP78/18S mRNA: 2.97 ± 0.05
XBP1p
  XBP1p/18S mRNA: 4.01 ± 0.05
